Assay results reported in US5939403A, “Keratan sulfate oligosaccharide fraction and pharmaceutical containing the same” (Seikagaku Corporation, priority 1994, dated 1999).

Key:
papain-induced arthritis = assay: Papain-induced unilateral arthritis model, intramuscular administration (volume of synovial fluid); assay type: in vivo, Japanese white rabbits (female); conditions: 0.5 mg/kg intramuscular, unilateral model; 10 rabbits per group
Description: The anti-inflammatory effect of the keratan sulfate oligosaccharide with rabbits of the papain-induced arthritis model was examined using the volume of synovial fluid as an indication.
Seven days after the injection, the blood was drawn from the auricular artery, and plasma containing heparin was separated. After drawing the blood, the rabbits were anatomized and the both knee joint were separated. The articular cavity was washed with 2 ml of saline three times to recover the synovial fluid. The calcium concentrations in the plasma and the recovered synovial fluid were determined, and the volume of synovial fluid was calculated from the following formula.
Volume of Synovial Fluid (ul/articulation)=Amount of Calcium in Recovered
Synovial Fluid (μg/articulation)/Concentration of Calcium in Plasma
Into the articular cavity of left joint of Japanese white rabbits (female) of 3 kg weight, 150 μl of the saline solution of papain (1%) was injected, and the right joint was not treated to prepare the unilateral arthritis model. One day after injecting papain, 150 μl of the PBS solution of the purified keratan sulfate tetrasaccharide (I) (2%, 1%, and 0.5% solution; 1.0 mg/kg, 0.5 mg/kg, and 0.25 mg/kg, respectively) which was prepared in Example 1 was injected into the hip muscle of the left side (hereinafter referred to as "the keratan sulfate tetrasaccharide (I) administered group"). As the control, 150 μl of PBS was injected to the arthritis model instead of the PBS solution of the keratan sulfate tetrasaccharide (I) and hereinafter these rabbits are referred to as "the control group". And the normal rabbits not subjected to the papain injection (hereinafter referred to as "the normal group") were also examined in the same manner hereinafter. Seven days after the injection, the volume of synovial fluid was calculated in the same manner as in (1-1).
The examination was performed in the same manner as in (1-3) except for using 150 μl of the PBS solution of the purified keratan sulfate tetrasaccharide (I), the keratan sulfate pentasaccharide (II), and the keratan sulfate disaccharide (III) (1% solution; 0.5 mg/kg) which were prepared in Example 1. In the figure, *, **, and *** represent that they have the significant difference with p<0.05, p<0.01, and p<0.001, respectively. And in each group, 10 rabbits were used for the examination.

allergic conjunctivitis = assay: TDI-induced allergic conjunctivitis model, eye dropping; assay type: in vivo, female Hartley guinea pigs; conditions: 6.0 mg/ml eye drop, comparison of oligosaccharides
Description: A variety of the keratan sulfate oligosaccharide was dropped in the eyes of the guinea pigs subjected to the induction of allergic conjunctivitis to examine the effect thereof.
Toluene diisocyanate (hereinafter referred to as TDI) was diluted with ethyl acetate to a concentration of 10%. To the bilateral vestibule of noses of 10 female Hartley guinea pigs of from about 900 to 1,000 g weight, the 10% TDI (10 μl/animal) obtained above was applied once a day for five days to prepare the TDI sensitization models. The PBS solution of the purified keratan sulfate tetrasaccharide (I) ([…]) which was prepared in Example 1 was dropped in the left eyes of the TDI sensitization models, while PBS was dropped in the right eyes as the control. The dose of dropping was one drop (48+4.6 μl (S.D.)) each from the eye dropper. After 10 minutes, 6.5 μl of 10% TDI was dropped to the both eyes to induce conjunctivitis. After five minutes standing, furthermore, the PBS solution of the keratan sulfate tetrasaccharide (I) ([…]) was dropped in the left eyes, and PBS was dropped in the right eyes. After 15 minutes, observation of the both eyes were carried out. The degree of conjunctivitis was evaluated regarding three items of hyperemia, edema and lacrimation into four grades such as point 0, +1, +2 and +3. In the figure, * represents that it has the significant difference with p<0.05 (wherein "p" means a level of significance by the .chi.^2 test).
The PBS solution of the purified keratan sulfate disaccharide (III), the keratan sulfate tetrasaccharide (I), and the keratan sulfate pentasaccharide (II) (6.0 mg/ml, respectively)which were prepared in Example 1 described above as the test substances were dropped, respectively, in the left eyes of the TDI sensitization models of 10 animals a group each which were prepared in the same manner as in (1) described above, and PBS was dropped in the right eyes as the control. The degree of conjunctivitis was evaluated in the same manner as in (1) described above. In the figure, * represents that it has the significant difference with p<0.05 (wherein "p" means a level of significance by the .chi.^2 test).
The PBS solution containing the purified keratan sulfate tetrasaccharide (I) which was prepared in Example 1 described above, at varieties of concentrations (6 mg/ml, 3 mg/ml, 1.5 mg/ml or 0.75 mg/ml) as the test substance, were dropped, respectively, in the left eyes of the TDI sensitization models of 10 animals a group each which were prepared in the same manner as in (1) described above, and PBS was dropped in the right eyes as the control. The degree of conjunctivitis was evaluated in the same manner as in (1) described above. In the figure, * represents that it has the significant differnce with p<0.05 (wherein "p" means a level of significance by the .chi.^2 test).

[1] = system: neutrophile of guinea pig; assay: Inhibition of active oxygen (O2^-) generation in FMLP-stimulated neutrophile; assay type: cell-based, female Hartley guinea pigs
Description: To female Hartley guinea pigs of five weeks old (purchased from Japan SLC), 20 ml of the 0.2% aqueous solution of glycogen (Type II; Oyster; Sigma) dissolved in saline which was previously sterilized with autoclave, was intraperitoneally administered. The guinea pigs were sacrificed by bleeding 16 hours after the administration, and 20 ml of the saline containing heparin at a concentration of 10 U/ml was intraperitoneally injected to recover the peritoneal exudate. Hereinafter all the operations were carried out under ice-water cooling condition except for incubation. The recovered exudate was centrifuged at 1,000 rpm for 10 minutes, the precipitate obtained was hemolyzed with purified water for 30 seconds, and returned into isotonicity with the Hanks' solution at double the concentration (not containing phenol red; Nissui Seiyaku), and further it was centrifuged at 1,000 rpm for 10 minutes. The precipitate obtained was suspended in the Hanks' solution and centrifuged and the operations were repeated once more to give the neutrophile.
The collected neutrophile of the guinea pigs was suspended in the Hanks' solution, the number of leukocyte in the suspension was determined by a cytometer (System K-2000; Toa Iyo Denshi Co.), and the suspension diluted with the Hanks' solution to 2×10^6 cells/ml was used in the determination as the cell suspension. After mixing 1 ml of the cell suspension and 10 μl of the purified keratan sulfate oligosaccharide (keratan sulfate tetrasaccharide (I), the keratan sulfate pentasaccharide (II), or the keratan sulfate disaccharide (III)) prepared in Example 1 described above, and the mixture was preincubated at 37° C. for an hour. […]
The supernatant obtained by the centrifugation was separated and the absorbance thereof was determined at 550 nm to estimate the quantity of reducing cytochrome c per 2×10^6 cells after the 10 minutes incubation. The quantity of reducing cytochrome c increases with the generation of active oxygen (O2^-). […]

**Q.** With “NeuAc~Galβ1-4GlcNAc(6S)β1-3Gal(6S)β1-4GlcNAc(6S) [keratan sulfate pentasaccharide (II)]” as the substance, how does the “quantity of synovial fluid (FIG. 5, result in words)” value (papain-induced arthritis) read?
**A.** significantly less than that in the control group

**Q.** And the “degree of conjunctivitis: hyperemia, edema and lacrimation (FIG. 12)” value (allergic conjunctivitis)?
**A.** tended to show inhibition in all the items

**Q.** What about the “inhibitory function for generation of active oxygen (O2^-) (FIG. 10)” value [1] of the same substance?
**A.** slightly observed
